The values that follow come from patent US8110398B2, “Stable cell lines and methods for evaluating gastrointestinal absorption of chemicals” (Absorption Systems Group, LLC, priority 2006, dated 2012).

Data set [1] can be described thus: in vitro. The note with it: human, pH 7.4.
A short description of data set [2]: in vitro. The note with it: human, Caco-2, pH 7.4.
For data set [3], the target named is T1, P-gp (Homo sapiens, UniProt P08183). In words: in vitro. The method, then:
(§1) Bidirectional Transcellular Transport assay.
(§2) Each determination was performed in duplicate.
The assay was carried out after each clone had been passaged 9 times.

The subject of a further data set is MRP2 mRNA. In words: RT-PCR of MRP2 mRNA expression in transduced C2BBe1 cells. In kind it is cell-based, human. The note with it: cells passaged 20 times. The protocol:
(§3) RT-PCR. Total RNA was extracted from cells according to the following protocol. Cells were harvested from culture by centrifugation, resuspended in 1 ml of TRIzol® reagent (Invitrogen, Carlsbad, Calif.), and incubated at room temperature for 5 minutes with gentle shaking. The suspension was transferred to a 1.5 ml centrifuge tube, to which 200 μl of Chloroform was added, followed by an additional 5 minute incubation period with shaking. After incubation, the suspension was centrifuged at 12,000×g for 12 minutes at 4° C. The supernatant was transferred to a fresh, sterile 1.5 ml centrifuge tube, and supplemented with 0.5 ml of 2-propanaol per 1 ml of TRIzol reagent, and incubated for 10 minutes at room temperature. The mixture was then centrifuged at 12,000×g for an additional 12 minutes at 4° C. After centrifugation, the supernatant was removed and the pellet was washed with 75% ethanol. The sample was re-centrifuged at 7500×g for 5 minutes at 4° C., followed by the removal of the supernatant. The pellet was allowed to air dry at room temperature. The pellet was resuspended in pre-warmed (55° C.) nuclease-free water, and incubated at 55° C. for 10 minutes. RNA yield and purity were quantified by absorbance at 260 nm and 280 nm.
(§4) RT-PCR mixtures were set up as 50 μl samples containing buffer, 1-2 μg of RNA, 10 μM of Forward primer, 10 μM of Reverse primer, Taq polymerase, and water. Primers to amplify human P-gylcoprotein were as follows: P-gp Forward 5′-[…]-3′ (SEQ ID NO: 9); and, P-gp Reverse 5′-[…]-3′ (SEQ ID NO: 10). Primers to amplify human MRP2 were as follows: MRP2 Forward 5′-[…]-3′ (SEQ ID NO: 11); and, MRP2 Reverse 5′-[…]-3′ (SEQ ID NO: 12). Primes to amplify human BCRP were as follows: BCRP Forward 5′-[…] 3′ (SEQ ID NO: 13); and, BCRP Reverse 5′-[…] 3′ (SEQ ID NO: 14). Human β-actin was amplified in parallel as a positive control using the following primers: β-actin Forward 5′-[…]-3′ (SEQ ID NO: 15); and, β-actin Reverse 5′-[…]-3′ (SEQ ID NO: 16).
(§5) The PCR cycles proceeded in a programmable thermocycler with the following parameters: cDNA synthesis, 1 cycle, 55° C. for 30 minutes; denaturation, 1 cycle, 94° C. for 2 minutes; PCR amplification, 40 cycles of 94° C. for 15 seconds, 62° C. for 30 seconds, 72° C. for 1 minute; and, final extension, 1 cycle, 72° C. for 5 minutes. Amplification was confirmed by electrophoresis in 2% agarose gels.
For this example, gene expression of MRP2 in C2BBe1 cells was determined by observing both the MRP2 mRNA content as well as the protein content of the cells following viral transduction. To examine mRNA content, total cellular RNA was harvested and amplified by RT-PCR using primers specific to the MRP2 gene (SEQ ID NO: 11 and 12). The RT-PCR products were then analyzed after separation by electrophoresis on a 2% agarose gel.
Vector control (VC) cells were prepared from cells transducted with lentiviruses encoding a non-interfering nucleic acid sequence (SEQ ID NO 27), as described in Example 7. Methods were described in Example 1. […]

A further data set addresses T2, BCRP (Homo sapiens, UniProt Q9UNQ0).
T2 sequence (Q9UNQ0 1-655): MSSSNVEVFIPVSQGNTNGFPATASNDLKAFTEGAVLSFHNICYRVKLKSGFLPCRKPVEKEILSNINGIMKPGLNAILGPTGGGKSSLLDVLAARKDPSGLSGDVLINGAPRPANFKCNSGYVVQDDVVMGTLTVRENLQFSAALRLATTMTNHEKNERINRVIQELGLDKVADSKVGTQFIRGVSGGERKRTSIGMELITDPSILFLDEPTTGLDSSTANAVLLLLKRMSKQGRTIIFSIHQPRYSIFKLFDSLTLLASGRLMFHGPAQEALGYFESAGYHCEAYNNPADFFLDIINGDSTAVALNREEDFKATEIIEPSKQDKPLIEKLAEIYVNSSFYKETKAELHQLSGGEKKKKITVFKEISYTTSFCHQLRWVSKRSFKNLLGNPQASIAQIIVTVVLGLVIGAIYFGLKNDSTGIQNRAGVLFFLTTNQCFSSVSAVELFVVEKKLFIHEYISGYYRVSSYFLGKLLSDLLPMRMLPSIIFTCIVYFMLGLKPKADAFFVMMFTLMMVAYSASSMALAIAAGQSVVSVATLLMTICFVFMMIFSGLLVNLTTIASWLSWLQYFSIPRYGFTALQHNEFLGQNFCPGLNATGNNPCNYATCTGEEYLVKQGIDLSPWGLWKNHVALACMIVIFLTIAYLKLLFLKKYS
The data set is described as follows: Bidirectional transcellular transport of E3S (BCRP substrate) across C2BBe1-derived monolayers. The note with it: compared to control cells. The method, then:
as §1, §2
Each of the five shRNA/BCRP knockdown clone cells were seeded on transwells for three weeks for the transport assay.

For the next data set, the system named is P-gp mRNA. In words: RT-PCR of P-gp mRNA expression in transduced C2BBe1 cells. It is filed as cell-based, human. The note with it: for P-gp mRNA expression relative to control C2BBe1 cells: RT-PCR, shRNA/P-gp clone cells. The method, then:
as §3, §4, §5
Gene expression of P-gp in knockdown cells (shRNA/P-gp clones #83, 84, 85, 86, and 87) was determined by observing P-gp mRNA content, protein content and protein functional activity. RT-PCR was used to determine the expression of the P-gp mRNA. Total cellular RNA was harvested and amplified using primers specific to P-gp mRNA. RT-PCR products were then separated by electrophoresis on a 2% agarose gel. It was determined that 4 of the 5 shRNA/P-gp clone cells contained substantially less P-gp mRNA than control C2BBe1 cells (FIG. 2, top panel). β-actin was amplified, in parallel, as a positive control, and its expression was not affected by the interfering shRNA (FIG. 2, bottom panel).

The subject of a further data set is BCRP mRNA. The data set is described as follows: RT-PCR of BCRP mRNA expression in transduced C2BBe1 cells. In kind it is cell-based, human. The note with it: between passages 5 and 20. The protocol:
as §3, with “The sample was re-centrifuged at 7500×g for 5 minutes at 4° C., followed by the removal of the supernatant. The pellet was allowed to air dry at room temperature. The pellet was resuspended in pre-warmed (55° C.) nuclease-free water, and incubated at 55° C. for 10 minutes.” left out, “nm. […]” for “nm.”
For RT-PCR, total cellular RNA was harvested as described in Examples 1 and 3 and amplified by RT-PCR using primers specific to BCRP mRNA (SEQ ID NOs: 13 and 14). The RT-PCR products were separated by electrophoresis on a 2% agarose gel and analyzed to determine whether shRNA/BCRP clone cells produced substantially less BCRP mRNA than C2BBe1 cells transduced with a non-interfering shRNA vector control.

The target of data set [4] is T1, P-gp. In words: Calcein-AM assay. The note with it: transduced C2BBe1 cells vs Un-KD. The method, then: Calcein-AM assay. To determine activity of the P-gp protein, calcein-AM assays were conducted.
To determine the P-gp activity, cells were plated in 96-well tissue culture plates and cultured for 48. After 48 hours, cell culture media was removed and the cells were washed with phosphate buffered saline solution (PBS). After washing, cells were incubated with 1 μM calcein-AM for 30 minutes. […] After incubation with calcein-AM, the cells were rinsed with fresh control buffer and fluorescence was measured using a Fluo-star fluorescence plate reader (BMG Lab Technologies, N.C.) with excitation and emission filters set at wavelengths of 485 nm and 538 nm, respectively.
Calcein-AM efflux is not mediated by BCRP. Therefore, any increase in calcein-AM uptake by the cells can be attributed to P-gp inhibition. The cells were plated in 96-well tissue culture plates and cultured for 48 hours. After 48 hours, cell culture media was removed and the cells were washed with phosphate buffered saline solution (PBS). After washing, cells were incubated with 1 μM calcein-AM for 30 minutes. […] After incubation with calcein-AM, the cells were rinsed with fresh control buffer and fluorescence was measured using a Fluo-star fluorescence plate reader (BMG Lab Technologies, N.C.) with excitation and emission filters set at wavelengths of 485 nm and 538 nm, respectively. The assay was carried out after each clone had been passaged 9 times.

T1 sequence (P08183 whole entry): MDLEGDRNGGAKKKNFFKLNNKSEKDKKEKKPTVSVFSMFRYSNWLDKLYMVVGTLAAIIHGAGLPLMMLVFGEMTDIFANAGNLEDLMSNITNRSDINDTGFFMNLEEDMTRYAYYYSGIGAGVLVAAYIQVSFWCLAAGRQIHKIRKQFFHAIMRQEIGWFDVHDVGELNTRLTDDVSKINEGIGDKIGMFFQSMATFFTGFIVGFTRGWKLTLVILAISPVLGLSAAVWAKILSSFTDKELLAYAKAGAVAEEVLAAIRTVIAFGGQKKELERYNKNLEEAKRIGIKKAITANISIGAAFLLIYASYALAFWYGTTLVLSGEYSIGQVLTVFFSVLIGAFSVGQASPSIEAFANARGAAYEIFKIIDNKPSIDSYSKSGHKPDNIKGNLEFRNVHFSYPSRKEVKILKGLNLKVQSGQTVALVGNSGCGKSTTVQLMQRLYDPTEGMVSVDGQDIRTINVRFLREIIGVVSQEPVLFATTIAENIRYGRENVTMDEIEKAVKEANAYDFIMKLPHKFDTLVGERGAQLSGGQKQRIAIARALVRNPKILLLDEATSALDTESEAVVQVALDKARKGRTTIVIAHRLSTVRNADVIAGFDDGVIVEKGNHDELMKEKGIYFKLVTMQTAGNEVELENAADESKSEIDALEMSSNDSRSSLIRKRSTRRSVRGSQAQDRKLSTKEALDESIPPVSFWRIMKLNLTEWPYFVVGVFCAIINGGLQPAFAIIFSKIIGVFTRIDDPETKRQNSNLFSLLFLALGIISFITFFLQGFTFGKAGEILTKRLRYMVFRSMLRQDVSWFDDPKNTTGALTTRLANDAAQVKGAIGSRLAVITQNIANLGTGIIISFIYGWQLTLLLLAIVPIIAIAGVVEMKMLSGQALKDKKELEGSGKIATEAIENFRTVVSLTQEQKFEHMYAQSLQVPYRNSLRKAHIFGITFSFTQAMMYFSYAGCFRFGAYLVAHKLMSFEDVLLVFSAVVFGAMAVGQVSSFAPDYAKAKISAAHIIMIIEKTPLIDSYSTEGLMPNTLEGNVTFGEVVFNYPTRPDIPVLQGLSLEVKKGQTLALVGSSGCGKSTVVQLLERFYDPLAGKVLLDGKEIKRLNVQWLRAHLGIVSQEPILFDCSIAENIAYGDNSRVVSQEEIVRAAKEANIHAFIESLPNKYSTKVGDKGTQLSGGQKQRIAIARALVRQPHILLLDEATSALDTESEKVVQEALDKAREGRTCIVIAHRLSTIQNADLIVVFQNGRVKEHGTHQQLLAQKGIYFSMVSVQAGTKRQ

`Cc1cc(=O)n(-c2ccccc2)n1C` [Antipyrine]: the efflux ratio (commonly the permeability from basolateral to apical divided by that in the opposite direction, in the common usage) at 2 h was 0.92 in the data set “in vitro [1]” and 0.84 in “in vitro [2]”.

Consider `CNCCCN1c2ccccc2CCc2ccccc21` [Desipramine], for which the efflux ratio at 2 h in the data set “in vitro [1]” stood at 6.84; in “in vitro [2]”, 5.59.

Consider `C[C@H]1O[C@@H](O[C@H]2[C@@H](O)C[C@H](O[C@H]3[C@@H](O)C[C@H](O[C@H]4CC[C@@]5(C)[C@H](CC[C@@H]6[C@@H]5C[C@@H](O)[C@]5(C)[C@@H](C7=CC(=O)OC7)CC[C@]65O)C4)O[C@@H]3C)O[C@@H]2C)C[C@H](O)[C@@H]1O` [Digoxin], for which the Papp A→B (as a rule, the apparent permeability from the apical to the basolateral side of a cell layer) at 2 h on P-gp [3] (Caco-2, pH 7.4, Efflux of digoxin A-B) came out at 0.2 ×10⁻⁶ cm/s. The Papp B→A (usually how fast a substance crosses the layer from the basolateral side) at 2 h on P-gp [3] (Caco-2, pH 7.4, Efflux of digoxin B-A) is 3.69 ×10⁻⁶ cm/s. The same molecule returned a Papp B→A at 2 h, 10 µM at P-gp [3] (Caco-2, pH 7.4, Papp B-A (Digoxin)) of 8.24 ×10⁻⁶ cm/s.

Regarding `COc1cc([C@@H]2c3cc4c(cc3[C@@H](O[C@@H]3O[C@@H]5CO[C@@H](C)O[C@H]5[C@H](O)[C@H]3O)[C@H]3COC(=O)[C@H]23)OCO4)cc(OC)c1O` [Etoposide], the efflux ratio at 2 h in the data set “in vitro [1]” was found to be 11.5; in “in vitro [2]” it was 13.7.

In the case of “shRNA/BCRP 801: 21-nucleotide sequence targeting human BCRP gene, SEQ ID NO: 25, lentivirally transduced into C2BBe1 cells; clone #801 (CCGGGCTGTGGCATTAAACAGAGAACTCGAGTTCTCTGTTTAATGCCACAGCTTTTTG; listed as Homo Sapiens)”, the “MRP2 mRNA levels in shRNA/BCRP clone cells” value in the data set with MRP2 mRNA is recorded as “reduced”. In addition, the “inhibition for BCRP function in E3S transport” value with BCRP came to 96.43%. The “P-gp mRNA levels in shRNA/BCRP clone cells” value in the data set with P-gp mRNA (compared with #799 and control cells) is listed as “higher”. Also, the “BCRP mRNA knockdown over passages” value with BCRP mRNA is reported as “steadily increased”.

Regarding “shRNA/P-gp #83: shRNA to human P-gp, SEQ ID NO: 1, lentivirally transduced into C2BBe1 cells; clone #83 (CCGGCCGAACACATTGGAAGGAAATCTCGAGATTTCCTTCCAATGTGTTCGGTTTTTG; listed as Homo Sapiens)”, the “P-gp function by intracellular calcein fluorescence” value with P-gp [4] is recorded as “significantly decreased”. In addition, the “P-gp mRNA expression relative to control C2BBe1 cells” value with P-gp mRNA is listed as “significantly reduced”.

For “shRNA/P-gp #84: shRNA to human P-gp, SEQ ID NO: 2, lentivirally transduced into C2BBe1 cells; clone #84 (CCGGGCAGCAATTAGAACTGTGATTCTCGAGAATCACAGTTCTAATTGCTGCTTTTTG; listed as Homo Sapiens)”, the “P-gp function by intracellular calcein fluorescence” value with P-gp [4] is recorded as “significantly decreased”. Further, the “P-gp mRNA expression relative to control C2BBe1 cells” value with P-gp mRNA is listed as “significantly reduced”.

For the molecule “shRNA/P-gp #85: shRNA to human P-gp, SEQ ID NO: 3, lentivirally transduced into C2BBe1 cells; clone #85 (CCGGCGACAGAATAGTAACTTGTTTCTCGAGAAACAAGTTACTATTCTGTCGTTTTTG; listed as Homo Sapiens)”, the “P-gp function by intracellular calcein fluorescence” value in the data set with P-gp [4] was “significantly decreased”. The “P-gp mRNA expression relative to control C2BBe1 cells” value in the data set with P-gp mRNA is recorded as “significantly reduced”.

On to “shRNA/P-gp #86: shRNA to human P-gp, SEQ ID NO: 4, lentivirally transduced into C2BBe1 cells; clone #86 (CCGGGCTCATCGTTTGTCTACAGTTCTCGAGAACTGTAGACAAACGATGAGCTTTTTG; listed as Homo Sapiens)”, for which, in the data set with P-gp [4], the “P-gp function by intracellular calcein fluorescence” value is “significantly decreased”. In addition, the “P-gp mRNA expression relative to control C2BBe1 cells” value in the data set on P-gp mRNA was “significantly reduced”.

Turning to “shRNA/P-gp #87: shRNA to human P-gp, SEQ ID NO: 5, lentivirally transduced into C2BBe1 cells; clone #87 (CCGGGCTGCTTTCCTGCTGATCTATCTCGAGATAGATCAGCAGGAAAGCAGCTTTTTG; listed as Homo Sapiens)”, the “P-gp function by intracellular calcein fluorescence” value with P-gp [4] is on record as “significantly decreased”. For the same molecule, the “P-gp mRNA expression relative to control C2BBe1 cells” value with P-gp mRNA is on record as “significantly reduced”.
